Laboratory results: patent publication US20220168427A1 (Ranok Therapeutics (Hangzhou) Co. Ltd., priority 2019, published 2022)

Columns and labels:
MV4-11 cells = experiment: MV4-11 Cell Cytotoxicity Assay; format: cell-based, human; conditions: human, MV4-11 cells, CCK-8
Excerpt: % Inhibition=100−(D−B)/(S−B)*100%.
S: The absorbance of the maximum (cells with DMSO)
B: The absorbance of the minimum (medium with DMSO)

BRD4 (BD1+BD2) = molecular target: T1, BRD4 (BD1+BD2) (Homo sapiens, UniProt O60885); conditions: read-out: BRD4 Binding Potency
T1 construct: 1.8 μg/ml recombinant BRD4 (BD1+BD2 domains) protein

HSP90α = HSP90α (Homo sapiens, UniProt P07900); experiment: HSP90α Binding Fluorescent Polarization (FP) Assay; conditions: competition with FITC-geldanamycin; read-out: HSP90 Binding Potency
Outline: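 Duplicate wells held BSA buffer, FITC-geldanamycin tracer, compound (3-fold dilution plate spanning 40 μM–2.0 nM) and recombinant protein diluted to 28 μg/ml before addition. Polarization read at 30, 60 and 120 min, 25 °C. Background-corrected mP values gave IC50 through a four-parameter inhibitor-response fit.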

Compound | IC50 at 72 h (MV4-11 cells) [nM] | IC50 (BRD4 (BD1+BD2)) [nM] | IC50 (HSP90α) [nM]
Cc1sc2c(c1C)C(c1ccc(Cl)cc1)=N[C@@H](CC(=O)NCCc1ccc(CN3CCC(Cc4ccc(-n5c(O)nnc5-c5cc(C(C)C)c(O)cc5O)cc4)CC3)cc1)c1nnc(C)n1-2 [Compound 98, (S)-2-(4-(4-chlorophenyl)-2,3,9-trimethyl-6H-thieno[3,2-f][1,2,4]triazolo[4,3-a][1,4]diazepin-6-yl)-N-(4-((4-(4-(3-(2,4-dihydroxy-5-isopropylphenyl)-5-hydroxy-4H-1,2,4-triazol-4-yl)benzyl)piperidin-1-yl)methyl)phenethyl)acetamide, trifluoroacetic acid] | < 100 | 100 to 1000 | 100 to 1000
Cc1sc2c(c1C)C(c1ccc(Cl)cc1)=N[C@@H](CC(=O)N(C)CCOc1ccc(CN(C)Cc3ccc(-n4c(O)nnc4-c4cc(C(C)C)c(O)cc4O)cc3)cc1)c1nnc(C)n1-2 [Compound 99, (S)-2-(4-(4-chlorophenyl)-2,3,9-trimethyl-6H-thieno[3,2-f][1,2,4]triazolo[4,3-a][1,4]diazepin-6-yl)-N-(2-(4-(((4-(3-(2,4-dihydroxy-5-isopropylphenyl)-5-hydroxy-4H-1,2,4-triazol-4-yl)benzyl)(methyl)amino)methyl)phenoxy)ethyl)-N-methylacetamide, formic acid] | < 100 | > 1000 | 100 to 1000
CCN(Cc1ccc(OCCCNC(=O)C[C@@H]2N=C(c3ccc(Cl)cc3)c3c(sc(C)c3C)-n3c(C)nnc32)cc1)Cc1ccc(-n2c(O)nnc2-c2cc(C(C)C)c(O)cc2O)cc1 [Compound 100, (S)-2-(4-(4-chlorophenyl)-2,3,9-trimethyl-6H-thieno[3,2-f][1,2,4]triazolo[4,3-a][1,4]diazepin-6-yl)-N-(3-(4-(((4-(3-(2,4-dihydroxy-5-isopropylphenyl)-5-hydroxy-4H-1,2,4-triazol-4-yl)benzyl)(ethyl)amino)methyl)phenoxy)propyl)acetamide, formic acid] | < 100 | 100 to 1000 | 100 to 1000
Cc1sc2c(c1C)C(c1ccc(Cl)cc1)=N[C@@H](CC(=O)N(C)CCOc1ccc(CN(C)Cc3ccc(-n4c(C(=O)NCC(F)(F)F)nnc4-c4cc(C(C)C)c(O)cc4O)cc3)cc1)c1nnc(C)n1-2 [Compound 101, (S)-4-(4-(((4-(2-(2-(4-(4-chlorophenyl)-2,3,9-trimethyl-6H-thieno[3,2-f][1,2,4]triazolo[4,3-a][1,4]diazepin-6-yl)-N-methylacetamido)ethoxy)benzyl)(methyl)amino)methyl)phenyl)-5-(2,4-dihydroxy-5-isopropylphenyl)-N-(2,2,2-trifluoroethyl)-4H-1,2,4-triazole-3-carboxamide, formic acid] | < 100 | > 1000 | > 1000
CCN(Cc1ccc(OCCCNC(=O)C[C@@H]2N=C(c3ccc(Cl)cc3)c3c(sc(C)c3C)-n3c(C)nnc32)cc1)Cc1ccc(-n2c(C(=O)NCC(F)(F)F)nnc2-c2cc(C(C)C)c(O)cc2O)cc1 [Compound 102, (S)-4-(4-(((4-(3-(2-(4-(4-chlorophenyl)-2,3,9-trimethyl-6H-thieno[3,2-f][1,2,4]triazolo[4,3-a][1,4]diazepin-6-yl)acetamido)propoxy)benzyl)(ethyl)amino)methyl)phenyl)-5-(2,4-dihydroxy-5-isopropylphenyl)-N-(2,2,2-trifluoroethyl)-4H-1,2,4-triazole-3-carboxamide, trifluoroacetic acid] | < 100 | > 1000 | > 1000
Cc1sc2c(c1C)C(c1ccc(Cl)cc1)=N[C@@H](CC(=O)N1CCC(CN3CCN(Cc4ccc(-n5c(O)nnc5-c5cc(C(C)C)c(O)cc5O)cc4)CC3)CC1)c1nnc(C)n1-2 [Compound 103, (S)-2-(4-(4-chlorophenyl)-2,3,9-trimethyl-6H-thieno[3,2-f][1,2,4]triazolo[4,3-a][1,4]diazepin-6-yl)-1-(4-((4-(4-(3-(2,4-dihydroxy-5-isopropylphenyl)-5-hydroxy-4H-1,2,4-triazol-4-yl)benzyl)piperazin-1-yl)methyl)piperidin-1-yl)ethan-1-one acetate] | < 100 | 100 to 1000 | 100 to 1000
CCc1cc(-c2nnc(C(=O)NCCN(CC)CC)n2-c2ccc(CN3CCN(CC4CCN(C(=O)C[C@@H]5N=C(c6ccc(Cl)cc6)c6c(sc(C)c6C)-n6c(C)nnc65)CC4)CC3)cc2)c(O)cc1O [Compound 104, (S)-4-(4-((4-((1-(2-(4-(4-chlorophenyl)-2,3,9-trimethyl-6H-thieno[3,2-f][1,2,4]triazolo[4,3-a][1,4]diazepin-6-yl)acetyl)piperidin-4-yl)methyl)piperazin-1-yl)methyl)phenyl)-N-(2-(diethylamino)ethyl)-5-(5-ethyl-2,4-dihydroxyphenyl)-4H-1,2,4-triazole-3-carboxamide, trifluoroacetic acid] | < 100 | < 100 | 100 to 1000
CCc1cc(-c2nnc(C(=O)NC(C)C)n2-c2ccc(CN3CCN(CC4CCN(C(=O)C[C@@H]5N=C(c6ccc(Cl)cc6)c6c(sc(C)c6C)-n6c(C)nnc65)CC4)CC3)cc2)c(O)cc1O [Compound 105, (S)-4-(4-((4-((1-(2-(4-(4-chlorophenyl)-2,3,9-trimethyl-6H-thieno[3,2-f][1,2,4]triazolo[4,3-a][1,4]diazepin-6-yl)acetyl)piperidin-4-yl)methyl)piperazin-1-yl)methyl)phenyl)-5-(5-ethyl-2,4-dihydroxyphenyl)-N-isopropyl-4H-1,2,4-triazole-3-carboxamide, trifluoroacetic acid] | < 100 | 100 to 1000 | 100 to 1000
CCc1cc(-c2nnc(C(N)=O)n2-c2ccc(CN3CCN(CC4CCN(C(=O)C[C@@H]5N=C(c6ccc(Cl)cc6)c6c(sc(C)c6C)-n6c(C)nnc65)CC4)CC3)cc2)c(O)cc1O [Compound 106, (S)-4-(4-((4-((1-(2-(4-(4-chlorophenyl)-2,3,9-trimethyl-6H-thieno[3,2-f][1,2,4]triazolo[4,3-a][1,4]diazepin-6-yl)acetyl)piperidin-4-yl)methyl)piperazin-1-yl)methyl)phenyl)-5-(5-ethyl-2,4-dihydroxyphenyl)-4H-1,2,4-triazole-3-carboxamide, trifluoroacetic acid] | < 100 | 100 to 1000 | 100 to 1000
Cc1sc2c(c1C)C(c1ccc(Cl)cc1)=N[C@@H](CC(=O)N1CCC(CN3CCN(Cc4ccc(-n5c(C(=O)NCCN6CCCCC6)nnc5-c5cc(C(C)C)c(O)cc5O)cc4)CC3)CC1)c1nnc(C)n1-2 [Compound 107, (S)-4-(4-((4-((1-(2-(4-(4-chlorophenyl)-2,3,9-trimethyl-6H-thieno[3,2-f][1,2,4]triazolo[4,3-a][1,4]diazepin-6-yl)acetyl)piperidin-4-yl)methyl)piperazin-1-yl)methyl)phenyl)-5-(2,4-dihydroxy-5-isopropylphenyl)-N-(2-(piperidin-1-yl)ethyl)-4H-1,2,4-triazole-3-carboxamide, trifluoroacetic acid] | < 100 | < 100 | 100 to 1000
Cc1sc2c(c1C)C(c1ccc(Cl)cc1)=N[C@@H](CC(=O)N1CCC(CN3CCN(Cc4ccc(-n5c(C(=O)NC(C)C)nnc5-c5cc(C(C)C)c(O)cc5O)cc4)CC3)CC1)c1nnc(C)n1-2 [Compound 108, (S)-4-(4-((4-((1-(2-(4-(4-chlorophenyl)-2,3,9-trimethyl-6H-thieno[3,2-f][1,2,4]triazolo[4,3-a][1,4]diazepin-6-yl)acetyl)piperidin-4-yl)methyl)piperazin-1-yl)methyl)phenyl)-5-(2,4-dihydroxy-5-isopropylphenyl)-N-isopropyl-4H-1,2,4-triazole-3-carboxamide, trifluoroacetic acid] | 100 to 1000 | > 1000 | > 1000
Cc1sc2c(c1C)C(c1ccc(Cl)cc1)=N[C@@H](CC(=O)N1CCC(CN3CCN(Cc4ccc(-n5c(C(N)=O)nnc5-c5cc(C(C)C)c(O)cc5O)cc4)CC3)CC1)c1nnc(C)n1-2 [Compound 109, (S)-4-(4-((4-((1-(2-(4-(4-chlorophenyl)-2,3,9-trimethyl-6H-thieno[3,2-f][1,2,4]triazolo[4,3-a][1,4]diazepin-6-yl)acetyl)piperidin-4-yl)methyl)piperazin-1-yl)methyl)phenyl)-5-(2,4-dihydroxy-5-isopropylphenyl)-4H-1,2,4-triazole-3-carboxamide, trifluoroacetic acid] | < 100 | < 100 | 100 to 1000
Cc1sc2c(c1C)C(c1ccc(Cl)cc1)=N[C@@H](CC(=O)N1CCC(CN3CCN(Cc4ccc(-n5c(C(=O)NCCN6CCCCC6)nnc5-c5ccc(O)cc5O)cc4)CC3)CC1)c1nnc(C)n1-2 [Compound 110, (S)-4-(4-((4-((1-(2-(4-(4-chlorophenyl)-2,3,9-trimethyl-6H-thieno[3,2-f][1,2,4]triazolo[4,3-a][1,4]diazepin-6-yl)acetyl)piperidin-4-yl)methyl)piperazin-1-yl)methyl)phenyl)-5-(2,4-dihydroxyphenyl)-N-(2-(piperidin-1-yl)ethyl)-4H-1,2,4-triazole-3-carboxamide, trifluoroacetic acid] | 100 to 1000 | < 100 | 100 to 1000
